These results are taken from US20250170136A1, “1,2,4-TRIAZIN-3(2H)-ONE COMPOUNDS FOR THE TREATMENT OF HYPERPROLIFERATIVE DISEASES” (BAYER AKTIENGESELLSCHAFT, priority 2019, published 2025).

Structures are written as SMILES.

One experiment addresses human full length PDE3B (Homo sapiens (Human), UniProt Q13370). The experiment is described as follows: PDE3B enzyme inhibition (3H-cAMP Scintillation Proximity Assay). The experiment is classed as biochemical. Conditions: Sf9 cell extract, 60 min room temperature. The method, then:
(§1) The commercially available 3H-cAMP Scintillation Proximity Assay (SPA, Perkin Elmer) system was used for enzyme inhibition studies. For the determination of the in vitro effect of example compounds on the PDE3B reactions 2 μl of the respective example compound solution in DMSO (serial dilutions) were placed in wells of microtiter plates (Isoplate-96/200W; Perkin Elmer). 50 μl of a dilution of PDE3B cell extract from Sf9 cells overexpressing human full length PDE3B (SB Drug Discovery, UK) in buffer A (50 mM Tris/HCl pH 7.5, 8.3 mM MgCl2, 1.7 mM EDTA, 0.2% BSA) was added. The dilution of the PDE3B cell extract was chosen such that the reaction kinetics was linear and less than 70% of the substrate was consumed (typical dilution 1:6000). The reaction was started by addition of 50 μl (0.025 μCi) of 1:2000 in buffer A w/o BSA diluted substrate [8-3H]adenosine 3′, 5′-cyclic phosphate (1 μCi/μl; Perkin Elmer). After incubation at room temperature for 60 min, the reaction was stopped by addition of 25 μl of a suspension containing 18 mg/ml yttrium scintillation proximity beads (Perkin Elmer) in water. The microtiter plates were sealed and measured in a Microbeta scintillation counter (PerkinElmer Wallac). IC50 values were determined from sigmoidal curves by plotting percentage PDE3B activity vs log compound concentration.
Background: Scintillation proximity formats need no separation of bound from free tracer.

A further experiment concerns SK-MEL-3 cells. The experiment is described as follows: Cell proliferation measurement (CellTiter-Glo, 72 h). Conditions: Homo sapiens, SK-MEL3; anti-proliferation, SK-MEL-3, 72 h. The experiment is classed as cell-based. The method, then: (§2) The antiproliferative activity of the compounds of the general formula (I) was examined in vitro in human cancer cells. […] After 24 h, cells on one plate (0 h plate) were treated with 30 μl/cavity of CTG solution (Promega Cell Titer Glo (catalogue #G755B and G756B)) and incubated at room temperature for 10 min, and luminescence was measured by means of a VICTOR V (Perkin Elmer), in order to determine cell viability on commencement of treatment. The cells on the test plate were treated with the compounds of the general formula (I) as and incubated at 37° C. for 72 h. The compounds were added to the cells by means of an HP D300 digital dispenser in a 10-step 2,5-fold dilution series generally starting at a maximum final drug concentration of 100 nM, or 30 μM in the case of COV318. As control, the cells were treated with vehicle (DMSO at 0.3% final concentration). After 72 h, the cells were treated with 30 μl/cavity of CTG solution (Promega Cell Titer Glo (catalogue #G755B and G756B)) and incubated at room temperature for 10 min, and luminescence was measured by means of a VICTOR V (Perkin Elmer), in order to determine cell viability at the end of treatment. The percentage effect on cell growth and the IC50 derived therefrom were determined for each test substance using the values from the 0 h plate (=maximum inhibition) and the DMSO control (=minimum inhibition). The IC50 values were calculated using a 4-parameter fit.
In general terms: ATP-based viability assays read luminescence as a measure of living cells.

The next experiment relates to HeLa cells. The experiment is described as above. The experiment is classed as cell-based. The settings on record: Homo sapiens, anti-proliferation. On the procedure:
as §2

The next experiment addresses human full length PDE3A (Homo sapiens (Human), UniProt Q14432). As to the kind of experiment: PDE3A enzyme inhibition (3H-cAMP Scintillation Proximity Assay). The experiment is classed as biochemical. Conditions: Sf9 cell extract, 60 min room temperature. On the procedure: as §1, with “PDE3A” for “PDE3B”, “1:5000).” for “1:6000).”

Usually IC50 stands for the midpoint of a concentration-inhibition curve. A high value points to weaker potency in that assay.

Chain of human full length PDE3B (Q13370 whole entry): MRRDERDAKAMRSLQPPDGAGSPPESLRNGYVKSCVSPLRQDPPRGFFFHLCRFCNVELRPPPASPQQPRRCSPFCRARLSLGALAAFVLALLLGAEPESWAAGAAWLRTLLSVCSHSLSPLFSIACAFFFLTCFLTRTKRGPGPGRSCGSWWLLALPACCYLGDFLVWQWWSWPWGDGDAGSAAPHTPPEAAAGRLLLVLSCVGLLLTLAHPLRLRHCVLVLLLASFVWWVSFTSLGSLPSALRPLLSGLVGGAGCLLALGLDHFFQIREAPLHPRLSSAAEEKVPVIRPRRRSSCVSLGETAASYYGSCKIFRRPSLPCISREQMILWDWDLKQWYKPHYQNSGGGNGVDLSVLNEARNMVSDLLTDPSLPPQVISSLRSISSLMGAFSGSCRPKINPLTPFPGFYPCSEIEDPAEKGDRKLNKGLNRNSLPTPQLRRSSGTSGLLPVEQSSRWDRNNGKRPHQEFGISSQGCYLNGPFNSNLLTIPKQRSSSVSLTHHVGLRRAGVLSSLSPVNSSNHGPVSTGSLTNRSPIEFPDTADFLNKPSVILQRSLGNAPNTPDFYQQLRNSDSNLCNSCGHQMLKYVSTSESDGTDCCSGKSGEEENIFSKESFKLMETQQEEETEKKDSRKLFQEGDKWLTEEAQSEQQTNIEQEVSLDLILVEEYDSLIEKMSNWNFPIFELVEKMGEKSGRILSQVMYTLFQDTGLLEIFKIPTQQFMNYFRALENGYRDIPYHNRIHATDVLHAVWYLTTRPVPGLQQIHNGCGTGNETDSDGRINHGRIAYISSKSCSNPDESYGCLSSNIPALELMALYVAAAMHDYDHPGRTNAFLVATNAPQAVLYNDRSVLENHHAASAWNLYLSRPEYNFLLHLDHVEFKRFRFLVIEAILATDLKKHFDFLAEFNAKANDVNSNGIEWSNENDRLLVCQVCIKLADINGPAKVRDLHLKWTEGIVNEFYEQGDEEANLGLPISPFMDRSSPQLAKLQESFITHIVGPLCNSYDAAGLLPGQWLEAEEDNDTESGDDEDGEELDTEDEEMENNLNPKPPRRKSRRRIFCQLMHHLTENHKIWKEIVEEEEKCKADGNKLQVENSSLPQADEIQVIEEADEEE
Chain of human full length PDE3A (Q14432 whole entry): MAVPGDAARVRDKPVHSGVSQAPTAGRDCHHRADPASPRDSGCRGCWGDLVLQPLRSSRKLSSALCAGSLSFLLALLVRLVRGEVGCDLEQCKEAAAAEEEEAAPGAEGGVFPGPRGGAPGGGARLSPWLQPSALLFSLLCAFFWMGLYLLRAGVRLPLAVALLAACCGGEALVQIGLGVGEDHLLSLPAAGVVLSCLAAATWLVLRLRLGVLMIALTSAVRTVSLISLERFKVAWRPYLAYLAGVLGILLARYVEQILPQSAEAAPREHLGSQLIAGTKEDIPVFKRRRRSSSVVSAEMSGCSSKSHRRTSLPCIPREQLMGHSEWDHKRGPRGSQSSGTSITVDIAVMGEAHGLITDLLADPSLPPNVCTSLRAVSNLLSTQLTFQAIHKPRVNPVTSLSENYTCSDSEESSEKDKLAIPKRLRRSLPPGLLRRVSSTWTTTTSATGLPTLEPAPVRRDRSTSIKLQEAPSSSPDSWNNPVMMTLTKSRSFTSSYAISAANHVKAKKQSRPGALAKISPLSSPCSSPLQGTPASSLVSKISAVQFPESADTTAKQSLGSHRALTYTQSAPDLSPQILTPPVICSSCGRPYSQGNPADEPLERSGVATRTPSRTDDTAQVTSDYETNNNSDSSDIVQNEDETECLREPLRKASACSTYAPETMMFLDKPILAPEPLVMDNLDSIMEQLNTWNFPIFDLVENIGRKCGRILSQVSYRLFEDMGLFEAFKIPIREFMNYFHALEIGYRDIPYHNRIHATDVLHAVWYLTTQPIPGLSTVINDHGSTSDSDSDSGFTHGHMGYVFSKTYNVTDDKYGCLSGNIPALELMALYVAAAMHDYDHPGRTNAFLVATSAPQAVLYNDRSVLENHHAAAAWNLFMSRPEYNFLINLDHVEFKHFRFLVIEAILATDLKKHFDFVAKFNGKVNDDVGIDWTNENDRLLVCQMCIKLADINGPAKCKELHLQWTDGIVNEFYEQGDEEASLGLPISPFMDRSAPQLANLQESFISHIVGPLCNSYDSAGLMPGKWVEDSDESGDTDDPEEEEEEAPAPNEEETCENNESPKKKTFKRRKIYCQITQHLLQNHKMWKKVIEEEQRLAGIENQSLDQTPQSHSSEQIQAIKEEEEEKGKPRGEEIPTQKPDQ

For `C[C@@H]1NC(=O)NN=C1c1ccc(NCc2ccn[nH]2)c(C(F)(F)F)c1` [Example 2, (5S)-5-methyl-6-[4-{[(1H-pyrazol-5-yl)methyl]amino}-3-(trifluoromethyl)phenyl]-4,5-dihydro-1,2,4-triazin-3(2H)-one], the IC50 was 6 nM against human full length PDE3B, 0.3 nM in the experiment on SK-MEL-3 cells, 0.7 nM in the experiment on HeLa cells and 5 nM on human full length PDE3A.

For the compound `C[C@@H]1NC(=O)NN=C1c1ccc(NCc2cnccn2)c(C(F)(F)F)c1` [Example 6, (5S)-5-methyl-6-[4-{[(pyrazin-2-yl)methyl]amino}-3-(trifluoromethyl)phenyl]-4,5-dihydro-1,2,4-triazin-3(2H)-one], the IC50 against human full length PDE3B is 5 nM; in the experiment with SK-MEL-3 cells it was 0.7 nM; with HeLa cells it was 0.3 nM; against human full length PDE3A, 4 nM.

Consider `C[C@@H]1NC(=O)NN=C1c1ccc(NC2CCCC2)c(C(F)(F)F)c1` [Example 4, (5S)-6-[4-(cyclopentylamino)-3-(trifluoromethyl)phenyl]-5-methyl-4,5-dihydro-1,2,4-triazin-3(2H)-one], for which the IC50 against human full length PDE3B came out at 1 nM; in the experiment with SK-MEL-3 cells it was 0.4 nM; with HeLa cells, 0.1 nM; against human full length PDE3A it was 2 nM.

In the case of `C[C@@H]1NC(=O)NN=C1c1ccc(NC[C@@H](O)C(F)(F)F)c(C(F)(F)F)c1` [Example 5, (5S)-5-methyl-6-[4-{[(2R)-3,3,3-trifluoro-2-hydroxypropyl]amino}-3-(trifluoromethyl)phenyl]-4,5-dihydro-1,2,4-triazin-3(2H)-one], the concentration for half-maximal inhibition (IC50) on human full length PDE3B worked out at 5 nM; in the experiment on SK-MEL-3 cells, 0.6 nM; in the experiment on HeLa cells it was 0.2 nM; on human full length PDE3A, 4 nM.

As for `C[C@@H]1NC(=O)NN=C1c1ccc(N2CC(C)(O)C2)c(C(F)(F)F)c1` [Example 3, (5S)-6-[4-(3-hydroxy-3-methylazetidin-1-yl)-3-(trifluoromethyl)phenyl]-5-methyl-4,5-dihydro-1,2,4-triazin-3(2H)-one], the IC50 was 1 nM against human full length PDE3B, 0.3 nM with SK-MEL-3 cells, 0.1 nM with HeLa cells and 2 nM against human full length PDE3A.
